Source: ChEMBL document CHEMBL5303304, “EUbOPEN Chemogenomics Library - IncuCyte” (2023)

Columns and labels:
Type in all cases: toxicity, cell-based
HEK-293T = test: Incucyte cell viability with HEK293T; conditions: human, 10 µM, compound concentration 10 uM
Fibroblast = test: Incucyte cell viability with human fibroblast; conditions: 10 µM, compound concentration 10 uM
U2OS = test: Incucyte cell viability with U2OS; conditions: human, 10 µM, compound concentration 10 uM
Note: unitless GR value; below 1 slowed growth and below 0 cell loss.

Row | Structure (SMILES) | Growth Rate (HEK-293T; 0 h, replicate number 1) | Growth Rate (HEK-293T; 0 h, replicate number 2) | Growth Rate (HEK-293T; 6 h, replicate number 2) | Growth Rate (HEK-293T; 12 h, replicate number 2) | Growth Rate (HEK-293T; 18 h, replicate number 2) | Growth Rate (HEK-293T; 24 h, replicate number 2) | Growth Rate (Fibroblast; 0 h, replicate number 1) | Growth Rate (Fibroblast; 6 h, replicate number 2) | Growth Rate (Fibroblast; 12 h, replicate number 2) | Growth Rate (Fibroblast; 18 h, replicate number 1) | Growth Rate (U2OS; 6 h, replicate number 2) | Growth Rate (U2OS; 12 h, replicate number 2) | Growth Rate (U2OS; 18 h, replicate number 2) | Growth Rate (U2OS; 24 h, replicate number 1) | Growth Rate (U2OS; 24 h, replicate number 2) | Growth Rate (Fibroblast; 6 h, replicate number 1) | Growth Rate (Fibroblast; 12 h, replicate number 1) | Growth Rate (U2OS; 6 h, replicate number 1) | Growth Rate (U2OS; 12 h, replicate number 1) | Growth Rate (U2OS; 18 h, replicate number 1) | also measured
1 | CCn1c(-c2nonc2N)nc2c(C#CC(C)(C)O)ncc(OCC3CCCNC3)c21 (stereo not drawn) | 0.09 | 0.47 | -0.49 | -0.05 | 0.15 | 0.13 | -0.85 | -0.99 | 0.5 | -0.63 | 0.47 | 0.86 | 0.84 | 0.96 | 0.9 | – | – | – | – | – | Growth Rate (HEK-293T; 6 h, replicate number 1): -0.57; Growth Rate (HEK-293T; 12 h, replicate number 1): -0.65; Growth Rate (HEK-293T; 18 h, replicate number 1): -0.26; Growth Rate (HEK-293T; 24 h, replicate number 1): -0.03; Growth Rate (Fibroblast; 18 h, replicate number 2): 0.47; Growth Rate (Fibroblast; 24 h, replicate number 1): 0.21; Growth Rate (Fibroblast; 24 h, replicate number 2): 0.58
2 | Cc1ccc(C)c(OCCCC(C)(C)C(=O)O[C@@H]2O[C@H](C(=O)O)[C@@H](O)[C@H](O)[C@H]2O)c1 | 0.57 | – | 0.49 | 0.64 | 0.87 | 0.91 | 0.21 | -0.9 | 0.42 | -0.29 | 0.89 | 0.99 | – | 0.9 | – | 0.96 | -1 | 0.4 | 0.78 | 0.89 | Growth Rate (Fibroblast; 24 h, replicate number 1): 0.68; Growth Rate (Fibroblast; 24 h, replicate number 2): 0.89; Growth Rate (U2OS; 0 h, replicate number 1): 0.28; Growth Rate (U2OS; 0 h, replicate number 2): -0.96
3 | CCN1CCN(Cc2ccc(Nc3ncc(F)c(-c4cc(F)c5nc(C)n(C(C)C)c5c4)n3)nc2)CC1.CS(=O)(=O)O | -0.17 | 0.21 | 0.64 | 0.38 | 0.6 | 0.76 | 0.5 | – | 0.98 | – | – | 0.97 | 0.98 | – | 1 | 0.33 | -1 | – | – | – | Growth Rate (HEK-293T; 12 h, replicate number 1): 0.36
4 | O=S(=O)(Nc1nnc2cc(OCC34CC5CC(CC(C5)C3)C4)c(C3CC3)cn12)C1CC1 | 0.55 | 0.41 | – | – | – | – | – | -1 | 0.16 | 0.51 | 0.37 | 0.76 | 0.91 | 0.94 | 0.89 | 0.92 | -1 | – | 0.94 | – | Growth Rate (HEK-293T; 6 h, replicate number 1): 0.8; Growth Rate (Fibroblast; 18 h, replicate number 2): 0.43; Growth Rate (Fibroblast; 24 h, replicate number 2): 0.63
5 | NC1=NC(=O)/C(=C2\CCNC(=O)c3[nH]c4ccccc4c32)N1 | 0.81 | 0.25 | – | – | – | – | 0.39 | – | – | -0.07 | 0.45 | 0.7 | 0.65 | 0.78 | – | – | -1 | 0.43 | 0.63 | 0.74 | –
6 | C=CC(=O)N1CCC[C@@H](n2nc(C(=O)Nc3ccc(CC(=O)N(C)C)c(C)c3C)c3c(N)ncnc32)C1 | -0.26 | -0.68 | – | – | – | – | 0.74 | – | – | – | – | – | – | – | – | -0.17 | -1 | – | – | – | Growth Rate (Fibroblast; 0 h, replicate number 2): -1; Growth Rate (Fibroblast; 24 h, replicate number 1): 0.16; Growth Rate (U2OS; 0 h, replicate number 2): -0.77
7 | NC(=O)c1ccc(-c2nc(-c3ccc4c(c3)OCO4)c(-c3ccccn3)[nH]2)cc1.O | 0.76 | – | – | – | – | – | -0.21 | -0.54 | – | -0.48 | – | – | 0.79 | 0.94 | – | -0.01 | – | 0.96 | 0.79 | 0.95 | Growth Rate (U2OS; 0 h, replicate number 1): -0.57; Growth Rate (U2OS; 0 h, replicate number 2): -0.09
8 | CC(Sc1nc2c(cnn2-c2cccc(Cl)c2)c(=O)[nH]1)C(N)=O (stereo not drawn) | 1 | 0.66 | – | – | – | – | – | – | – | 0.53 | 0.38 | 0.69 | 0.68 | 0.84 | 0.85 | 0.44 | – | -0.28 | 0.5 | 0.85 | Growth Rate (Fibroblast; 0 h, replicate number 2): -1
